From PubChem BioAssay AID192 (DTP/NCI, 2004)
Where “and” joins values, the source holds several entries; their conditions need not be identical. Equal entries are not always repeated. Inconclusive results and toxic doses are left out. How the source made its calls: active means survival T/C of 150% or more; inactive means T/C below 125% in these data.

Tested on: BDF1 mice, B16 melanoma ip, median survival T/C
Test: NCI In Vivo Anticancer Drug Screen. Data for tumor model B16 Melanoma (intraperitoneal) in B6D2F1 (BDF1) mice
Conditions: endpoint: median survival time, higher = longer survival
In short: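 Compounds were tested in mice carrying transplantable tumors. Survival or tumor size was recorded, and each value is the treated-group measurement (T) divided by that of the vehicle-treated control group (C).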

[1] = dose: 12.5 mg/kg/injection, schedule: Q01DX009 (ip), vehicle: saline
[2] = dose: 50.0 mg/kg/injection, schedule: Q01DX009 (ip), vehicle: saline with Tween-80
[3] = dose: 6.25 mg/kg/injection, schedule: Q01DX009 (ip), vehicle: saline with Tween-80
[4] = dose: 12.5 mg/kg/injection, schedule: Q01DX009 (ip), vehicle: saline with Tween-80
[5] = dose: 25.0 mg/kg/injection, schedule: Q01DX009 (ip), vehicle: saline with Tween-80
[6] = dose: 100.0 mg/kg/injection, schedule: Q01DX009 (ip), vehicle: Klucel (hydroxypropylcellulose) (HPC)
[7] = dose: 100.0 mg/kg/injection, schedule: Q01DX009 (ip), vehicle: saline with Tween-80

Measured: T/C

C1CC2(CCN1)SSC1(CCNCC1)S2
inactive: dose: 100.0 mg/kg/injection, schedule: Q04DX003 (ip), vehicle: saline 100 % of control | dose: 200.0 mg/kg/injection, schedule: Q04DX003 (ip), vehicle: saline 100 % of control

C[C@@H]1C[C@](O)([C@@H](C)Cl)C(=O)O[C@@H]2CCN3CC=C(COC(=O)[C@]1(C)O)[C@H]23
inactive: dose: 5.5 mg/kg/injection, schedule: Q01DX009 (ip), vehicle: saline 97 % of control | dose: 11.0 mg/kg/injection, schedule: Q01DX009 (ip), vehicle: saline 90 % of control | dose: 22.0 mg/kg/injection, schedule: Q01DX009 (ip), vehicle: saline 111 % of control

CC1=C(C)C(=O)O[C@@H]([C@](C)(O)[C@]2(O)CC[C@@]3(O)[C@@H]4C[C@H]5O[C@]56[C@@H](O)C=CC(=O)[C@]6(C)[C@H]4CC[C@]23C)C1
inactive: dose: 2.0 mg/kg/injection, schedule: Q01DX005 (ip), vehicle: saline + alcohol 117 % of control | dose: 2.0 mg/kg/injection, schedule: Q01DX005 (iv), vehicle: saline + alcohol 99 % of control | dose: 4.0 mg/kg/injection, schedule: Q01DX001 (ip), vehicle: saline + alcohol 113 % of control | dose: 4.0 mg/kg/injection, schedule: Q01DX001 (iv), vehicle: saline + alcohol 103 % of control | dose: 4.0 mg/kg/injection, schedule: Q01DX005 (iv), vehicle: saline + alcohol 97 % of control | dose: 4.0 mg/kg/injection, schedule: Q01DX005 (oral), vehicle: saline + alcohol 103 % of control | dose: 4.0 mg/kg/injection, schedule: Q01DX009 (oral), vehicle: saline + alcohol 90 % of control | dose: 8.0 mg/kg/injection, schedule: Q01DX001 (ip), vehicle: saline + alcohol 113 % of control | dose: 8.0 mg/kg/injection, schedule: Q01DX001 (iv), vehicle: saline + alcohol 114 % of control | dose: 8.0 mg/kg/injection, schedule: Q01DX001 (oral), vehicle: saline + alcohol 97 % of control | dose: 8.0 mg/kg/injection, schedule: Q01DX005 (iv), vehicle: saline + alcohol 95 % of control | dose: 8.0 mg/kg/injection, schedule: Q01DX005 (oral), vehicle: saline + alcohol 103 % of control | dose: 8.0 mg/kg/injection, schedule: Q01DX009 (oral), vehicle: saline + alcohol 95 % of control | dose: 16.0 mg/kg/injection, schedule: Q01DX001 (iv), vehicle: saline + alcohol 92 % of control | dose: 16.0 mg/kg/injection, schedule: Q01DX001 (oral), vehicle: saline + alcohol 99 % of control | dose: 16.0 mg/kg/injection, schedule: Q01DX005 (ip), vehicle: saline + alcohol 116 % of control | dose: 16.0 mg/kg/injection, schedule: Q01DX005 (iv), vehicle: saline + alcohol 92 % of control | dose: 16.0 mg/kg/injection, schedule: Q01DX005 (oral), vehicle: saline + alcohol 104 % of control | dose: 16.0 mg/kg/injection, schedule: Q01DX009 (oral), vehicle: saline + alcohol 94 % of control | dose: 32.0 mg/kg/injection, schedule: Q01DX001 (ip), vehicle: saline + alcohol 116 % of control | dose: 32.0 mg/kg/injection, schedule: Q01DX001 (iv), vehicle: saline + alcohol 101 % of control | dose: 32.0 mg/kg/injection, schedule: Q01DX001 (oral), vehicle: saline + alcohol 103 % of control | dose: 32.0 mg/kg/injection, schedule: Q01DX005 (iv), vehicle: saline + alcohol 99 % of control | dose: 32.0 mg/kg/injection, schedule: Q01DX005 (oral), vehicle: saline + alcohol 90 % of control | dose: 32.0 mg/kg/injection, schedule: Q01DX009 (oral), vehicle: saline + alcohol 104 % of control | dose: 64.0 mg/kg/injection, schedule: Q01DX001 (iv), vehicle: saline + alcohol 105 % of control | dose: 64.0 mg/kg/injection, schedule: Q01DX001 (oral), vehicle: saline + alcohol 101 % of control | dose: 64.0 mg/kg/injection, schedule: Q01DX005 (oral), vehicle: saline + alcohol 97 % of control | dose: 64.0 mg/kg/injection, schedule: Q01DX009 (oral), vehicle: saline + alcohol 101 % of control | dose: 128.0 mg/kg/injection, schedule: Q01DX001 (oral), vehicle: saline + alcohol 105 % of control

C=CC(=O)O
inactive: dose: 3.13 mg/kg/injection, schedule: Q01DX009 (ip), vehicle: saline 112 % of control | dose: 6.25 mg/kg/injection, schedule: Q01DX009 (ip), vehicle: saline 114 % of control | [1] 114 % of control

CCOC(=O)C(C)C(=O)O (stereo not given)
inactive: [1] 116 % of control | dose: 25.0 mg/kg/injection, schedule: Q01DX009 (ip), vehicle: saline 101 % of control | [2] 99 % of control | dose: 50.0 mg/kg/injection, schedule: Q01DX009 (ip), vehicle: saline 98 % of control

CCCCCC/C=C\C(=O)O
inactive: [3] 94 % of control and 95 % of control | [4] 93 % of control and 104 % of control | [5] 93 % of control and 98 % of control | [2] 88 % of control

Cc1cccc(C)c1NC(=O)c1ccc(Cl)cc1Cl
inactive: [6] 92 % of control

CNc1ccc(O)cc1
inactive: [3] 92 % of control | [4] 92 % of control | [5] 95 % of control

CCc1ccccc1NC(=O)Nc1ccc(Cl)c(Cl)c1
inactive: dose: 75.0 mg/kg/injection, schedule: Q01DX009 (ip), vehicle: Klucel (hydroxypropylcellulose) (HPC) 102 % of control | dose: 150.0 mg/kg/injection, schedule: Q01DX009 (ip), vehicle: Klucel (hydroxypropylcellulose) (HPC) 97 % of control | dose: 300.0 mg/kg/injection, schedule: Q01DX009 (ip), vehicle: Klucel (hydroxypropylcellulose) (HPC) 89 % of control

NC(=O)Oc1cccc(OC(N)=O)c1
inactive: dose: 12.5 mg/kg/injection, schedule: Q01DX009 (ip), vehicle: water 89 % of control | dose: 25.0 mg/kg/injection, schedule: Q01DX009 (ip), vehicle: water 94 % of control | dose: 50.0 mg/kg/injection, schedule: Q01DX009 (ip), vehicle: water 93 % of control | dose: 100.0 mg/kg/injection, schedule: Q01DX009 (ip), vehicle: water 105 % of control | dose: 200.0 mg/kg/injection, schedule: Q01DX009 (ip), vehicle: water 93 % of control | dose: 400.0 mg/kg/injection, schedule: Q01DX009 (ip), vehicle: water 107 % of control

CCN(c1ccccc1C)S(=O)(=O)c1ccccc1
inactive: [5] 100 % of control | [2] 101 % of control | [6] 96 % of control | [7] 96 % of control

CCC[CH2][Sn]1([CH2]CCC)[O]C(=O)C[S]1
inactive: dose: 1.0 mg/kg/injection, schedule: Q01DX009 (ip), vehicle: saline with Tween-80 103 % of control | dose: 2.0 mg/kg/injection, schedule: Q01DX009 (ip), vehicle: saline with Tween-80 101 % of control

CC#CCOCC(CCl)OC(=O)Nc1ccccc1 (stereo not given)
inactive: dose: 100.0 mg/kg/injection, schedule: Q04DX003 (ip), vehicle: saline with Tween-80 93 % of control | dose: 200.0 mg/kg/injection, schedule: Q04DX003 (ip), vehicle: saline with Tween-80 97 % of control | dose: 400.0 mg/kg/injection, schedule: Q04DX003 (ip), vehicle: saline with Tween-80 90 % of control

NNC(=O)c1cccc(C(=O)NN)c1
inactive: [7] 97 % of control | dose: 200.0 mg/kg/injection, schedule: Q01DX009 (ip), vehicle: saline with Tween-80 100 % of control | dose: 400.0 mg/kg/injection, schedule: Q01DX009 (ip), vehicle: saline with Tween-80 97 % of control

COc1ccc2cc1Oc1ccc(cc1)C[C@H]1c3cc(c(OC)cc3CCN1C)Oc1c(O)c(OC)cc3c1[C@H](C2)N(C)CC3
inactive: dose: 25.0 mg/kg/injection, schedule: Q01DX009 (ip), vehicle: acid diluted with saline 116 % of control | dose: 50.0 mg/kg/injection, schedule: Q01DX009 (ip), vehicle: acid diluted with saline 105 % of control

Brc1nnnn1-c1ccccc1
inactive: [6] 90 % of control | dose: 200.0 mg/kg/injection, schedule: Q01DX009 (ip), vehicle: Klucel (hydroxypropylcellulose) (HPC) 93 % of control
